pIC50, pKd: −log10 of the molar value.
Columns and labels:
[1] = biological target: T1, p53 Y220C mutant protein (amino acid residues 94-293) (Homo sapiens, UniProt P04637, Y220C); assay: Thermal Shift Assay (TSA), dTM; format: binding; settings: thermal shift; for ΔTm at 10 µM: 10 uM compound, read-out: TSA P53 Y220C dTM (10 uM); for ΔTm at 100 µM: 100 uM compound, read-out: TSA P53 Y220C dTM (100 uM)
T1 construct: p53 Y220C mutant protein (amino acid residues 94-293)
In short: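 TM is derived by fitting Sypro Orange melt curves (30 °C to 50 °C, 0.03 °C/second) to a Boltzmann two-state model. Beforehand, 5 μM p53 Y220C (94-293) sits with 10 μM or 100 μM compound for 3 hours at 20 °C in HEPES pH7.4 buffer containing 100 mM NaCl and 1% DMSO.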

p53 Y220C = p53 Y220C (Homo sapiens, UniProt P04637, Y220C); assay: Luciferase Reporter Assay (Luc), p53 response element, NClH1299 cells with inducible p53 Y220C; format: cell-based; settings: luciferase reporter, NClH1299 inducible p53 Y220C, 6 hour; for Emax: 10 uM tool compound as positive control; for AC50: read-out: Luc P53 Y220C AC50
In short: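 Doxycycline (0.5 ug/mL, 24 h) induces the mutant before a 6-hour compound treatment. Reporter activity is then quantified by One-Glo luminescence.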

[2] = biological target: T1, p53 Y220C mutant protein (amino acid residues 94-293); assay: Surface Plasmon Resonance (SPR) assay, Kd_kinetic; format: binding; settings: SPR, kinetic KD, p53 Y220C; read-out: SPR P53 Y220C KD kinetic
In short: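 Surface plasmon resonance is run at 16 or 20 °C in 50 mM Tris pH 7.5 containing 100 mM NaCl, 1 mM DTT, 0.01% Brij35, 0.05% Tween-20 and 1% DMSO. Association and dissociation data are fitted to a 1:1 model.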

H1299 p53 Y220C = assay: Cell Proliferation Assay (CellTiter-Glo, CTG), H1299 p53 Y220C (NClH1299-inducible p53 Y220C); format: cell-based; settings: Homo sapiens, NCI-H1299, 120 h, CellTiter-Glo, H1299 p53 Y220C, 5 days
In short: (§1)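 Cells seeded at 250-500 per well and exposed to compound for 5 days. Viability read by CellTiter-Glo luminescence after 10 min at room temperature; IC50 calculated. H1299 lines carry Tet-One inducible p53 mutant constructs introduced by lentiviral transduction.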

H1299 p53 R273H = assay: Cell Proliferation Assay (CellTiter-Glo, CTG), H1299 p53 R273H (NClH1299-inducible p53 R273H); format: cell-based; settings: Homo sapiens, NCI-H1299, 120 h, CellTiter-Glo, H1299 p53 R273H, 5 days
In short: as §1

NUGC3 p53 Y220C = assay: Cell Proliferation Assay (CellTiter-Glo, CTG), NUGC3 p53 Y220C; format: cell-based; settings: Homo sapiens, NUGC-3, 120 h, CellTiter-Glo, NUGC3 p53 Y220C, 5 days
In short: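 Tet-One inducible p53 Y220C or R273H constructs were stably introduced into NCI-H1299 by lentiviral transduction; NUGC3 was used as is. Cells (250-500 per well) were exposed to compound for 5 days, then CellTiter-Glo was added for 10 min at room temperature and IC50 was calculated from luminescence.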

SMILES | ΔTm at 10 µM [1] | ΔTm at 100 µM [1] | Emax (p53 Y220C) | AC50 (p53 Y220C) | pKd [2] | pIC50 (H1299 p53 Y220C) | pIC50 (H1299 p53 R273H) | pIC50 (NUGC3 p53 Y220C)
CNC(=O)c1ccc(NCC#Cc2nc3c(N[C@@H]4CCN(C)C[C@@H]4F)cccn3c2SC(F)(F)F)c(OCCOC)c1 [Example 104, 4-{[3-(8-{[(3S,4R)-3-fluoro-1-methylpiperidin-4-yl]amino}-3-[(trifluoromethyl)sulfanyl]imidazo[1,2-a]pyridin-2-yl)prop-2-yn-1-yl]amino}-3-(2-methoxyethoxy)-N-methylbenzamide] | ≥ 10 °C | ≥ 10 °C | 80 to 90% | < 0.75 µM | > 8.00 | > 6.12 | 5.00 to 5.10 | > 6.12
CNC(=O)c1ccc(NCC#Cc2nc3c(N[C@@H]4CCN(C)C[C@@H]4F)cccn3c2SC(F)(F)F)c(OC(F)F)c1 [Example 105, 3-(difluoromethoxy)-4-{[3-(8-{[(3S,4R)-3-fluoro-1-methylpiperidin-4-yl]amino}-3-[(trifluoromethyl)sulfanyl]imidazo[1,2-a]pyridin-2-yl)prop-2-yn-1-yl]amino}-N-methylbenzamide] | ≥ 10 °C | ≥ 10 °C | 80 to 90% | < 0.75 µM | > 8.00 | > 6.12 | 5.00 to 5.10 | > 6.12
CNC(=O)c1ccc(NCC#Cc2nc3c(N[C@@H]4CCN(C)C[C@@H]4F)cccn3c2SC(F)F)c(OC)c1 [Example 106, 4-[(3-{3-[(difluoromethyl)sulfanyl]-8-{[(3S,4R)-3-fluoro-1-methylpiperidin-4-yl]amino}imidazo[1,2-a]pyridin-2-yl}prop-2-yn-1-yl)amino]-3-methoxy-N-methylbenzamide] | 5 to 10 °C | ≥ 10 °C | 70 to 80% | < 0.75 µM | > 8.00 | > 6.12 | ≤ 5.00 | > 6.12
CNC(=O)c1ccc(OC)c(NCC#Cc2nc3c(N[C@@H]4CCN(C)C[C@@H]4F)cccn3c2SC(F)(F)F)c1 [Example 107, 3-{[3-(8-{[(3S,4R)-3-fluoro-1-methylpiperidin-4-yl]amino}-3-[(trifluoromethyl)sulfanyl]imidazo[1,2-a]pyridin-2-yl)prop-2-yn-1-yl]amino}-4-methoxy-N-methylbenzamide] | ≥ 10 °C | ≥ 10 °C | 80 to 90% | < 0.75 µM | > 8.00 | > 6.12 | > 5.30 | > 6.12
CCNC(=O)c1ccc(OC)c(NCC#Cc2nc3c(N[C@@H]4CCN(C)C[C@@H]4F)cccn3c2SC(F)(F)F)c1 [Example 108, N-ethyl-3-{[3-(8-{[(3S,4R)-3-fluoro-1-methylpiperidin-4-yl]amino}-3-[(trifluoromethyl)sulfanyl]imidazo[1,2-a]pyridin-2-yl)prop-2-yn-1-yl]amino}-4-methoxybenzamide] | ≥ 10 °C | ≥ 10 °C | 80 to 90% | < 0.75 µM | > 8.00 | > 6.12 | 5.00 to 5.10 | > 6.12
COc1ccc(C(=O)NC2CC2)cc1NCC#Cc1nc2c(N[C@@H]3CCN(C)C[C@@H]3F)cccn2c1SC(F)(F)F [Example 109, N-cyclopropyl-3-{[3-(8-{[(3S,4R)-3-fluoro-1-methylpiperidin-4-yl]amino}-3-[(trifluoromethyl)sulfanyl]imidazo[1,2-a]pyridin-2-yl)prop-2-yn-1-yl]amino}-4-methoxybenzamide] | ≥ 10 °C | ≥ 10 °C | 80 to 90% | < 0.75 µM | > 8.00 | > 6.12 | 5.00 to 5.10 | > 6.12
COc1cc2c(cc1NCC#Cc1nc3c(N[C@@H]4CCN(C)C[C@@H]4F)cccn3c1CC(F)(F)F)CCNC2=O [Example 110, 6-{[3-(8-{[(3S,4R)-3-fluoro-1-methylpiperidin-4-yl]amino}-3-(2,2,2-trifluoroethyl)imidazo[1,2-a]pyridin-2-yl)prop-2-yn-1-yl]amino}-7-methoxy-3,4-dihydro-2H-isoquinolin-1-one] | – | ≥ 10 °C | 80 to 90% | < 0.75 µM | > 8.00 | > 6.12 | 5.10 to 5.30 | > 6.12
CNC(=O)c1cc(OC)c(NCC#Cc2nc3c(N[C@@H]4CCN(C)C[C@@H]4F)cccn3c2CC(F)(F)F)cc1Cl [Example 111, 2-chloro-4-{[3-(8-{[(3S,4R)-3-fluoro-1-methylpiperidin-4-yl]amino}-3-(2,2,2-trifluoroethyl)imidazo[1,2-a]pyridin-2-yl)prop-2-yn-1-yl]amino}-5-methoxy-N-methylbenzamide] | – | ≥ 10 °C | > 90% | 0.75 to 1.5 µM | > 8.00 | 5.82 to 6.12 | ≤ 5.00 | 5.82 to 6.12
CN1CC[C@@H](Nc2cccn3c(CC(F)(F)F)c(C#CCNc4ccccc4)nc23)[C@@H](F)C1 [Example 112, (3S,4R)-3-fluoro-1-methyl-N-{2-[3-(phenylamino)prop-1-yn-1-yl]-3-(2,2,2-trifluoroethyl)imidazo[1,2-a]pyridin-8-yl}piperidin-4-amine] | – | 5 to 10 °C | 70 to 80% | > 3 µM | 6.00 to 7.00 | < 5.52 | ≤ 5.00 | < 5.52
COCCN1CCC(Nc2cccn3c(CC(F)(F)F)c(C#CCNc4ccc(S(C)(=O)=O)cc4OC)nc23)CC1 [Example 113, N-(2-{3-[(4-methanesulfonyl-2-methoxyphenyl)amino]prop-1-yn-1-yl}-3-(2,2,2-trifluoroethyl)imidazo[1,2-a]pyridin-8-yl)-1-(2-methoxyethyl)piperidin-4-amine] | – | ≥ 10 °C | < 70% | 1.5 to 3 µM | 7.00 to 8.00 | 5.82 to 6.12 | 5.10 to 5.30 | 5.82 to 6.12
COc1cc(S(C)(=O)=O)ccc1NCC#Cc1nc2c(NC3CC4(C3)CN(C)C4)cccn2c1CC(F)(F)F [Example 114, N-(2-{3-[(4-methanesulfonyl-2-methoxyphenyl)amino]prop-1-yn-1-yl}-3-(2,2,2-trifluoroethyl)imidazo[1,2-a]pyridin-8-yl)-2-methyl-2-azaspiro[3.3]heptan-6-amine] | – | ≥ 10 °C | 70 to 80% | > 3 µM | 7.00 to 8.00 | < 5.52 | 5.10 to 5.30 | 5.52 to 5.82
COc1cc(S(C)(=O)=O)ccc1NCC#Cc1nc2c(NC3CC4(COC4)C3)cccn2c1CC(F)(F)F [Example 115, 2-{3-[(4-methanesulfonyl-2-methoxyphenyl)amino]prop-1-yn-1-yl}-N-{2-oxaspiro[3.3]heptan-6-yl}-3-(2,2,2-trifluoroethyl)imidazo[1,2-a]pyridin-8-amine] | – | 5 to 10 °C | < 70% | > 3 µM | 6.00 to 7.00 | < 5.52 | ≤ 5.00 | < 5.52
